The structures appear in SMILES notation.

The term IC50 denotes the concentration that inhibits the measured activity by half.

For the assay, the target named is T1, human MPO (Homo sapiens, UniProt P05164).
T1 sequence (P05164 49-745): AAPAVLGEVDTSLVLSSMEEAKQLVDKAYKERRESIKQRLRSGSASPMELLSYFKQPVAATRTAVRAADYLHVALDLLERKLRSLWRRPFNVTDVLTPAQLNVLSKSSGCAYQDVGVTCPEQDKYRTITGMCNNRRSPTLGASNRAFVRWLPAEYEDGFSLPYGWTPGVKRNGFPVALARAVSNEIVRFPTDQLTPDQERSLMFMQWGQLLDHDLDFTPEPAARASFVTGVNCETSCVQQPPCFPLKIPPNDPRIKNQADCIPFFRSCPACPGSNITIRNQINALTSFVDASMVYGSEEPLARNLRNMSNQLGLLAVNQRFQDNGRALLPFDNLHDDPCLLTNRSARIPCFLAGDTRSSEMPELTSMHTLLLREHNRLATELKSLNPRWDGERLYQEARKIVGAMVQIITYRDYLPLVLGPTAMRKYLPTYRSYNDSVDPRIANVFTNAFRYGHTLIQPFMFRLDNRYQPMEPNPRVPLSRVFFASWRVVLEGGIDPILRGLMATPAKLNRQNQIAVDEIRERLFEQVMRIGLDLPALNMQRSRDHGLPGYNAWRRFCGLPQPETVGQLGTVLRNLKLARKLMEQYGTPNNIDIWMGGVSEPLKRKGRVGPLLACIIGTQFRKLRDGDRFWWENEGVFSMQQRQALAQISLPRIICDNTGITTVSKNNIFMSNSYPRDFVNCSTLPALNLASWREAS
Put plainly: MPO inhibition screen (TMB oxidation, absorbance), compounds alone or with added tyrosine. The conditions noted are these: in the presence of tyrosine (final concentration 8 μM); human MPO 2.5 nM; H2O2 100 μM; pH 6.5. The assay is classed as biochemical. The procedure: Methods for the determination of MPO inhibitory activity are disclosed in patent application WO 02/090575. The pharmacological activity of compounds according to the invention was tested in the following screen in which the compounds were either tested alone or in the presence of added tyrosine:
Assay buffer: 20 mM sodium/potassium phosphate buffer pH 6.5 containing 10 mM taurine and 100 mM NaCl.
Developing reagent: 2 mM 3,3′,5,5′-tetramethylbenzidine (TMB), 200 μM KI, 200 mM acetate buffer pH 5.4 with 20% DMF.
To 10 μl of diluted compounds in assay buffer, 40 μl of human MPO (final concentration 2.5 nM), with or without 20 μM tyrosine (final concentration, if present, 8 μM), was added and the mixture was incubated for 10 minutes at ambient temperature. Then 50 μl of H2O2 (final concentration 100 μM), or assay buffer alone as a control, were added. After incubation for 10 minutes at ambient temperature, the reaction was stopped by adding 10 μl 0.2 mg/ml of catalase (final concentration 18 μg/ml). The reaction mixture was left for an additional 5 minutes before 100 μl of TMB developing reagent was added. The amount of oxidised 3,3′,5,5′-tetramethylbenzidine formed was then measured after about 5 minutes using absorbance spectroscopy at about […]. IC50 values were then determined using standard procedures.
Regarding `O=c1[nH]c(=S)n(Cc2ccncc2)c2nc[nH]c12` [Example 3, 3-(pyridin-4-ylmethyl)-2-thioxo-1,2,3,7-tetrahydro-6H-purin-6-one], the IC50 was 100 nM. Turning to `CC(c1nc2ccccc2[nH]1)n1c(=S)[nH]c(=O)c2[nH]cnc21` (stereo not drawn) [Example 9, 3-[1-(1H-benzimidazol-2-yl)ethyl]-2-thioxo-1,2,3,7-tetrahydro-6H-purin-6-one], the 50% inhibitory concentration (IC50) was 10000 nM. As to `CC(Cn1c(=S)[nH]c(=O)c2[nH]cnc21)NCc1cccn1C` (stereo not drawn) [Example 44, 3-(2-{[(1-methyl-1H-pyrrol-2-yl)methyl]amino}propyl)-2-thioxo-1,2,3,7-tetrahydro-6H-purin-6-one], the IC50 amounted to 2200 nM.

(Values after patent publication US8026244B2, “Thioxanthine derivatives and their use as inhibitors of MPO” (AstraZeneca AB, priority 2006, dated 2011).)
